Source: patent publication US11141494B2, “Development of neurokinin-1 receptor-binding agent delivery conjugates” (PURDUE RESEARCH FOUNDATION, priority 2014, dated 2021)

Experiments:
[1] = in terms of human activity and metabolism; cited from earlier work
[2] = system: NKIR-transduced xenografts (HEK 293-NKIR) versus non-transduced xenografts (HEK 293-WT); assay: PET imaging of 64Cu-labeled NK1R ligand conjugate in tumor xenograft mice (ROI activity, % ID/mL); type: in vivo, athymic nude mice; details: intravenous
Protocol: A NK-1 receptor-binding radionuclide delivery conjugate was prepared that contained NK1RL, a PEG2 linker, and ^64Cu-labeled chelator (radiochemical purity: 99%) with Specific Activity (SA) of 3.7 MBq/μg. Four NKIR-transduced xenografts (HEK 293-NKIR) were prepared, as well as four non-transduced xenografts (HEK 293-WT) using athymic nude mice. Doses of 140-160 uCi (˜[…]) of ligand per mouse were intravenously administered, and the models were imaged at 1, 4 and 20 hours post-injection using PET. The images were analyzed in a region of interest (ROI) around the tumor xenograft activity, and percentage injected dose per mL (% ID/mL) values were calculated from the mean activity in the ROIs. FIG. 8A is a plot showing ROI activity for the NK1R-transduced and non-transduced xenografts. […] FIG. 8B is a plot showing the ^64Cu—NK1R ligand uptake ratio between the NK1R-transduced and non-transduced xenografts in various areas at 20 hours post-injection.

SMILES	biological half-life [1] [day]	accumulation in NK1R-transduced versus non-transduced xenografts (ROI activity) ([2]; PET at 1, 4 and 20 hours post-injection, HEK 293-NKIR and HEK 293-WT xenografts)	time post-injection at which the ratio between NK1R-transduced and non-transduced xenografts was highest ([2]; PET imaged at 1, 4 and 20 hours post-injection) [h]
[99Tc] [^99mTc, technetium-99m]	1	–	–
O=C(O)CN1CCN(CC(=O)O)CCN(CC(=O)NCCOCCOCCNC(=O)CN2CCC[C@H](OCc3cc(C(F)(F)F)cc(C(F)(F)F)c3)[C@@H]2c2ccccc2)CC1 [NK1RL-PEG2-NOTA-^64Cu conjugate, metal not drawn]	–	specifically accumulated in NK1R-transduced xenografts, but not in non-transduced murine model xenografts	20
